In patent US12060347B2 (BRISTOL-MYERS SQUIBB COMPANY, priority 2016, dated 2024):

Molecular target: T1, human PAR4 (Homo sapiens, UniProt Q96RI0)
T1 construct: expressed in transfected cells; host or cells: HEK293 PAR4 Clone 1.2A (BMS Arctic ID 383940)
T1 sequence (Q96RI0 18-385): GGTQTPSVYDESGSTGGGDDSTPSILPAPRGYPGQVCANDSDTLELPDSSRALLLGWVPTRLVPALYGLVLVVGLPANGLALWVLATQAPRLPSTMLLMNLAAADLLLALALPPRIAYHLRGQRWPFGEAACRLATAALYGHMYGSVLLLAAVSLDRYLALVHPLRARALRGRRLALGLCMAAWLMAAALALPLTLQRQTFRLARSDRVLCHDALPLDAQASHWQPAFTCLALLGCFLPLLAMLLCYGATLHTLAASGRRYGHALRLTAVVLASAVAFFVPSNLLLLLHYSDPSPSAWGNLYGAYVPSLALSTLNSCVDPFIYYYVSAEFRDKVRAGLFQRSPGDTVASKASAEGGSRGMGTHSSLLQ
Experiment: PAR4 FLIPR assay: antagonism of agonist-peptide-induced calcium mobilization in PAR4-expressing HEK293 cells
Format: cell-based
Settings: H-Ala-Phe(4-F)-[…]NH2-induced intracellular calcium mobilization, 11-point curves

Row | Compound | IC50 [nM]
1 | Cc1cc(-c2nc3c(C)cc(OCCNS(=O)(=O)c4ccccc4)cc3s2)c2ncc(OC(F)F)nc2c1 [Example 73, N-(2-(2-(2-(difluoromethoxy)-7-methylquinoxalin-5-yl)-4-methylbenzo[d]thiazol-6-yloxy)ethyl)benzenesulfonamide] | 2.3
2 | COc1cnc2c(-c3nc4cc(F)c(OC[C@@H](C)OC(=O)Nc5ccnc(OCCC(C)(C)O)c5)cc4s3)cc(C)cc2n1 [Example 567, (R)-1-((5-fluoro-2-(2-methoxy-7-methylquinoxalin-5-yl)benzo[d]thiazol-6-yl)oxy)propan-2-yl (2-(3-hydroxy-3-methylbutoxy)pyridin-4-yl)carbamate] | 5.9
3 | COc1cnc2c(-c3nc4cc(F)c(O[C@@H](C)[C@@H](C)OC(=O)Nc5ccc(C(=O)N6CC[C@H](CO)C6)nc5)cc4s3)cc(C)cc2n1 [Example 482, (2R,3S)-3-((5-fluoro-2-(2-methoxy-7-methylquinoxalin-5-yl)benzo[d]thiazol-6-yl)oxy)butan-2-yl (6-((S)-3-(hydroxymethyl)pyrrolidine-1-carbonyl)pyridin-3-yl)carbamate] | 0.6
4 | COc1cnc2c(-c3nc4cc(F)c(O[C@@H](C)[C@@H](C)OC(=O)Nc5ccnc(OCC(C)(C)O)c5)cc4s3)cc(C)cc2n1 [Example 562, (2R,3S)-3-((5-fluoro-2-(2-methoxy-7-methylquinoxalin-5-yl)benzo[d]thiazol-6-yl)oxy)butan-2-yl (2-(2-hydroxy-2-methylpropoxy)pyridin-4-yl)carbamate] | 1.6
5 | COCc1cnc2c(-c3nc4c(C)cc(OCCNS(=O)(=O)c5ccc(F)cc5)nc4s3)cc(C)cc2n1 [Example 193, 4-fluoro-N-(2-((2-(2-(methoxymethyl)-7-methylquinoxalin-5-yl)-7-methylthiazolo[5,4-b]pyridin-5-yl)oxy)ethyl)benzenesulfonamide] | 1.2
6 | COc1cnc2c(-c3nc4cc(F)c(O[C@@H](C)[C@@H](C)OC(=O)Nc5ccncc5)nc4s3)cc(C)cc2n1 [Example 713, (2R,3S)-3-((6-fluoro-2-(2-methoxy-7-methylquinoxalin-5-yl)thiazolo[5,4-b]pyridin-5-yl)oxy)butan-2-yl pyridin-4-ylcarbamate] | 1.8
7 | COCc1cnc2c(-c3nc4c(C)cc(OCc5ccccc5)cc4s3)cc(C)cc2n1 [Example 307, 6-(benzyloxy)-2-(2-(methoxymethyl)-7-methylquinoxalin-5-yl)-4-methylbenzo[d]thiazole] | 0.9
8 | COC(=O)c1cnc2c(-c3nc4c(C)cc(OCCNS(=O)(=O)c5ccc(F)cc5)cc4s3)cc(C)cc2n1 [Example 32, methyl 5-(6-(2-(4-fluorophenylsulfonamido)ethoxy)-4-methylbenzo[d]thiazol-2-yl)-7-methylquinoxaline-2-carboxylate] | 3
9 | CCOc1cnc2c(-c3cc4ccccc4o3)cc(C)cc2n1 [Example 661, 5-(benzofuran-2-yl)-2-ethoxy-7-methylquinoxaline] | 55
10 | Cc1cc(-c2nc3c(C)cc(OCCNS(=O)(=O)c4ccc(F)cc4)cc3s2)c2ncc(OCF)nc2c1 [Example 34, 4-fluoro-N-(2-((2-(2-(fluoromethoxy)-7-methylquinoxalin-5-yl)-4-methylbenzo[d]thiazol-6-yl)oxy)ethyl)benzenesulfonamide] | 1.6
11 | COc1cnc2c(-c3nc4cc(F)c(O[C@@H](C)[C@@H](C)OC(=O)Nc5cnc(C)nc5)cc4s3)cc(C#N)cc2c1 [Example 655, (2R,3S)-3-((2-(6-cyano-3-methoxyquinolin-8-yl)-5-fluorobenzo[d]thiazol-6-yl)oxy)butan-2-yl (2-methylpyrimidin-5-yl)carbamate] | 1.1
12 | COc1cnc2c(-c3nc4cc(F)c(OC[C@@H](C)OC(=O)Nc5cnc(CO)nc5)nc4s3)cc(Cl)cc2c1 [Example 794, (R)-1-((2-(6-chloro-3-methoxyquinolin-8-yl)-6-fluorothiazolo[5,4-b]pyridin-5-yl)oxy)propan-2-yl (2-(hydroxymethyl)pyrimidin-5-yl)carbamate] | 10
13 | COCc1cnc2c(-c3cc4cc(OC)ccc4o3)cc(C)cc2n1 [Example 94, 5-(5-methoxybenzofuran-2-yl)-2-(methoxymethyl)-7-methylquinoxaline] | 1.4
14 | COc1cnc2c(-c3nc4cc(F)c(O[C@@H](C)[C@@H](C)OC(=O)Nc5cnc(C)nc5)nc4s3)cc(C)cc2n1 [Example 731, (2R,3S)-3-((6-fluoro-2-(2-methoxy-7-methylquinoxalin-5-yl)thiazolo[5,4-b]pyridin-5-yl)oxy)butan-2-yl (2-methylpyrimidin-5-yl)carbamate] | 0.9
15 | COc1cnc2c(-c3nc4cc(F)c(O[C@@H](C)[C@@H](C)OC(=O)Nc5cnc(C(=O)NCCO)nc5)cc4s3)cc(C)cc2n1 [Example 455, (2R,3S)-3-((5-fluoro-2-(2-methoxy-7-methylquinoxalin-5-yl)benzo[d]thiazol-6-yl)oxy)butan-2-yl (2-((2-hydroxyethyl)carbamoyl)pyrimidin-5-yl)carbamate] | 0.8
16 | Cc1cc(-c2nc3c(C)cc(OCCNS(=O)(=O)c4ccc(F)cc4)cc3s2)c2ncc(OC3CC3)nc2c1 [Example 33, N-(2-((2-(2-cyclopropoxy-7-methylquinoxalin-5-yl)-4-methylbenzo[d]thiazol-6-yl)oxy)ethyl)-4-fluorobenzenesulfonamide] | 120
17 | COc1cnc2c(-c3nc4cc(F)c(OC[C@@H](C)OC(=O)Nc5ccc(N6CCOC6=O)nc5)cc4s3)cc(C)cc2n1 [Example 609, (R)-1-((5-fluoro-2-(2-methoxy-7-methylquinoxalin-5-yl)benzo[d]thiazol-6-yl)oxy)propan-2-yl (6-(2-oxooxazolidin-3-yl)pyridin-3-yl)carbamate] | 1.9

Second part, the molecule after the results:

Row | IC50 [nM] | Compound
18 | 10 | COc1cnc2c(-c3nc4cc(F)c(OC[C@@H](C)OC(=O)Nc5cnc(CO)nc5)nc4s3)cc(C)cc2n1 [Example 768, (R)-1-((6-fluoro-2-(2-methoxy-7-methylquinoxalin-5-yl)thiazolo[5,4-b]pyridin-5-yl)oxy)propan-2-yl (2-(hydroxymethyl)pyrimidin-5-yl)carbamate]
19 | 2 | COc1cnc2c(-c3nc4c(Cl)c(F)c(OCCOC(=O)Nc5ccc(-n6cnc(C)n6)nc5)cc4s3)cc(C)cc2n1 [Example 338, 2((4-chloro-5-fluoro-2-(2-methoxy-7-methylquinoxalin-5-yl)benzo[d]thiazol-6-yl)oxy)ethyl (6-(3-methyl-1H-1,2,4-triazol-1-yl)pyridin-3-yl)carbamate]
20 | 1 | COc1cnc2c(-c3nc4cc(F)c(OC[C@@H](C)OC(=O)Nc5cnc(C)nc5)nc4s3)cc(C)cc2n1 [Example 678, (R)-1-((6-fluoro-2-(2-methoxy-7-methylquinoxalin-5-yl)thiazolo[5,4-b]pyridin-5-yl)oxy)propan-2-yl (2-methylpyrimidin-5-yl)carbamate]
21 | 3.2 | COc1cnc2c(-c3nc4c(C)cc(OCCOC(=O)Nc5ccnc(C)c5)cc4s3)cc(CO)cc2n1 [Example 129, 2-(2-(7-(hydroxymethyl)-2-methoxyquinoxalin-5-yl)-4-methylbenzo[d]thiazol-6-yloxy)ethyl 2-methylpyridin-4-ylcarbamate]
22 | 0.4 | CNC(=O)c1ccc(NC(=O)O[C@H](C)COc2cc3sc(-c4cc(C)cc5nc(OC)cnc45)nc3cc2F)cn1 [Example 432, (R)-1-((5-fluoro-2-(2-methoxy-7-methylquinoxalin-5-yl)benzo[d]thiazol-6-yl)oxy)propan-2-yl (6-(methylcarbamoyl)pyridin-3-yl)carbamate]
23 | 2.8 | COc1cnc2c(-c3nc4c(Cl)c(F)c(O[C@@H](C)[C@@H](C)OC(=O)Nc5cncc(F)c5)cc4s3)cc(C)cc2c1 [Example 804, (2R,3S)-3-((4-chloro-5-fluoro-2-(3-methoxy-6-methylquinolin-8-yl)benzo[d]thiazol-6-yl)oxy)butan-2-yl (5-fluoropyridin-3-yl)carbamate]
24 | 5.6 | COc1cnc2c(-c3nc4cc(F)c(O[C@@H](C)[C@@H](C)OC(=O)Nc5ccc(N(C)C)nc5)cc4s3)cc(C)cc2n1 [Example 599, (2R,3S)-3-((5-fluoro-2-(2-methoxy-7-methylquinoxalin-5-yl)benzo[d]thiazol-6-yl)oxy)butan-2-yl (6-(dimethylamino)pyridin-3-yl)carbamate]
25 | 5.1 | COCc1cnc2c(-c3nc4c(C)c(C)c(OCC(C)O)cc4s3)cc(C)cc2n1 (racemic) [Example 322, 1-((2-(2-(methoxymethyl)-7-methylquinoxalin-5-yl)-4,5-dimethylbenzo[d]thiazol-6-yl)oxy)propan-2-ol]
26 | 4.2 | COCc1cnc2c(-c3nc4c(Cl)cncc4s3)cc(C)cc2n1 [Example 149, 7-chloro-2-(2-(methoxymethyl)-7-methylquinoxalin-5-yl)thiazolo[5,4-c]pyridine]
27 | 270 | COc1cnc2c(-c3nc4c(Cl)c(F)c(OCCOC(N)=O)cc4s3)cc(C)cc2n1 [Example 358, 2-((4-chloro-5-fluoro-2-(2-methoxy-7-methylquinoxalin-5-yl)benzo[d]thiazol-6-yl)oxy) ethyl carbamate]
28 | 3.2 | COc1cnc2c(-c3nc4cc(F)c(OC[C@@H](C)OC(=O)Nc5ccc(C(=O)NCCO)nc5)cc4s3)cc(C)cc2n1 [Example 445, (R)-1-((5-fluoro-2-(2-methoxy-7-methylquinoxalin-5-yl)benzo[d]thiazol-6-yl)oxy)propan-2-yl (6-((2-hydroxyethyl)carbamoyl)pyridin-3-yl)carbamate]
29 | 1.4 | COCc1cnc2c(-c3nc4c(C(C)O)cc(OC)cc4s3)cc(C)cc2n1 (centres unmarked) [Example 156, 1-(6-methoxy-2-(2-(methoxymethyl)-7-methylquinoxalin-5-yl)benzo[d]thiazol-4-yl) ethanol]
